Consider ten compounds from BindingDB's records for doi:10.1016/j.bmcl.2021.128376 (Bristol Myers Squibb Research and Development, 2021).

This experiment is described as follows: Inhibition of c-MYC (unknown origin).

Broadly, the IC50 is the midpoint of a concentration-inhibition curve. Low readings indicate inhibition by little substance, high ones a need for much substance. Compound `[2H]C([2H])([2H])c1nnn(C)c1-c1cc2c(cc1F)c1ncc(C(C)(C)O)cc1n2[C@H](c1ncccc1F)C1CCOCC1` displayed an IC50 of 1.3 nM.

For the compound `[2H]C([2H])([2H])c1nnn(C)c1-c1cc2c(cc1F)c1ncc(C(C)(C)O)cc1n2[C@H](c1cc(C)on1)C1CCOCC1`, the IC50 turned out to be 2.4 nM.

Consider `[2H]C([2H])([2H])c1nnn(C)c1-c1cc2c(cc1F)c1ncc(C(C)(C)O)cc1n2[C@@H](CCC)c1ncccc1F`, for which the IC50 was 0.7 nM.

Compound `Cc1nnn(C)c1-c1cc2c(cn1)c1ncc(C(C)(C)O)cc1n2[C@H](c1ccccc1)C1CCOCC1` [US9725449, Example 364] gave an IC50 of 6.9 nM.

Regarding `Cc1nnn(C)c1-c1cnc2c3ccc(C(C)(C)O)cc3n([C@H](c3ccccc3)C3CCOCC3)c2c1` [US10112941, Example 54], the IC50 was found to be 0.7 nM.

For the compound `Cc1nnn(C)c1-c1cc(F)c2c3ncc(C(C)(C)O)cc3n([C@H](c3ccccc3)C3CCOCC3)c2c1` [US10683290, Example 11], 3.4 nM corresponded to half-maximal inhibition (IC50).

`Cc1nnn(C)c1-c1ccc2c3ncc(C(C)(C)O)cc3n([C@H](c3ccccc3)C3CCOCC3)c2c1` [US10683290, Example 16]: the IC50 worked out at 0.2 nM.

Consider `Cc1nnn(C)c1-c1cc2c(cc1F)c1ncc(C(C)(C)O)cc1n2[C@H](c1ccccc1)C1CCOCC1` [US10683290, Example 19], for which the IC50 is 0.8 nM.

`Cc1nnn(C)c1-c1ccc2c3ncc(C(C)(C)O)cc3n([C@H](c3ccccc3)C3CCOCC3)c2c1F` [US10683290, Example 20] yielded an IC50 of 0.6 nM.

`Cc1nnn(C)c1-c1cc2c(cc1Cl)c1ncc(C(C)(C)O)cc1n2[C@H](c1ccccc1)C1CCOCC1` [US10683290, Example 77] had an IC50 of 42 nM.
